# Legend:
# Test in all cases: KinaseProfiler kinase assay
# Type in all cases: biochemical
# [1] = molecular target: EphA8(h) (Homo sapiens, UniProt P29322)
# Summary of the method: (§1)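 Steps: compound diluted from DMSO into MOPS/BSA assay buffer; MgATP mix with [γ-33P]ATP added to start; 40 min incubation at room temperature; phosphoric acid stop; filtermat spotting, washing in 50 mM phosphoric acid and methanol; scintillation counting.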
# [2] = molecular target: PDGFRα(V561D)(h) (Homo sapiens, UniProt P16234, V561D)
# Summary of the method: as §1
# [3] = molecular target: PrKX(h) (Homo sapiens, UniProt P51817)
# Summary of the method: as §1
# [4] = molecular target: SAPK2b(h) (Homo sapiens, UniProt Q15759)
# Summary of the method: as §1
# [5] = molecular target: TBK1(h) (Homo sapiens, UniProt Q9UHD2)
# Summary of the method: as §1
# [6] = molecular target: Haspin(h) (Homo sapiens, UniProt Q8TF76)
# Summary of the method: as §1
# [7] = molecular target: Tie2(R849W)(h) (Homo sapiens, UniProt Q02763, R849W)
# Summary of the method: as §1
# [8] = molecular target: STK33(h) (Homo sapiens, UniProt Q9BYT3)
# Summary of the method: as §1
# [9] = molecular target: T1, Src(1-530)(h) (Homo sapiens, UniProt P12931)
# T1 construct: Src(1-530)(h)
# Summary of the method: as §1
# [10] = molecular target: PAK6(h) (Homo sapiens, UniProt Q9NQU5)
# Summary of the method: as §1
# [11] = molecular target: PKCη(h) (Homo sapiens, UniProt P24723)
# Summary of the method: as §1
# [12] = molecular target: ROCK-II(h) (Homo sapiens, UniProt O75116)
# Summary of the method: as §1
# [13] = molecular target: Flt3(D835Y)(h) (Homo sapiens, UniProt P36888, D835Y)
# Summary of the method: as §1
# [14] = molecular target: PAR-1Bα(h) (Homo sapiens, UniProt Q7KZI7)
# Summary of the method: as §1
# [15] = molecular target: MLCK(h) (Homo sapiens, UniProt Q9H1R3)
# Summary of the method: as §1
# [16] = molecular target: Yes(h) (Homo sapiens, UniProt P07947)
# Summary of the method: as §1
# [17] = molecular target: NEK7(h) (Homo sapiens, UniProt Q8TDX7)
# Summary of the method: as §1
# [18] = molecular target: TSSK2(h) (Homo sapiens, UniProt Q96PF2)
# Summary of the method: as §1
# [19] = molecular target: MAPKAP-K2(h) (Homo sapiens, UniProt P49137)
# Summary of the method: as §1
# [20] = molecular target: PI3 Kinase (p110α(E542K)/p85α)(m) (Mus musculus, UniProt P42337, E542K)
# Summary of the method: as §1
# [21] = molecular target: TrkB(h) (Homo sapiens, UniProt Q16620)
# Summary of the method: as §1
# [22] = molecular target: Rse(h) (Homo sapiens, UniProt Q06418)
# Summary of the method: as §1
# [23] = molecular target: PKBβ(h) (Homo sapiens, UniProt P31751)
# Summary of the method: as §1
# [24] = molecular target: IGF-1R(h) (Homo sapiens, UniProt P08069)
# Summary of the method: as §1
# [25] = molecular target: PI3 Kinase (p110α(E542K)/p85α)(h) (Homo sapiens, UniProt P42336, E542K)
# Summary of the method: as §1
# [26] = molecular target: EphA3(h) (Homo sapiens, UniProt P29320)
# Summary of the method: as §1
# [27] = molecular target: EphA5(h) (Homo sapiens, UniProt P54756)
# Summary of the method: as §1
# [28] = molecular target: MST1(h) (Homo sapiens, UniProt Q13043)
# Summary of the method: as §1
# [29] = molecular target: CK1δ(h) (Homo sapiens, UniProt P48730)
# Summary of the method: as §1
# [30] = molecular target: PAK4(h) (Homo sapiens, UniProt O96013)
# Summary of the method: as §1
# [31] = molecular target: MST2(h) (Homo sapiens, UniProt Q13188)
# Summary of the method: as §1
# Chain of PrKX(h) (P51817 whole entry): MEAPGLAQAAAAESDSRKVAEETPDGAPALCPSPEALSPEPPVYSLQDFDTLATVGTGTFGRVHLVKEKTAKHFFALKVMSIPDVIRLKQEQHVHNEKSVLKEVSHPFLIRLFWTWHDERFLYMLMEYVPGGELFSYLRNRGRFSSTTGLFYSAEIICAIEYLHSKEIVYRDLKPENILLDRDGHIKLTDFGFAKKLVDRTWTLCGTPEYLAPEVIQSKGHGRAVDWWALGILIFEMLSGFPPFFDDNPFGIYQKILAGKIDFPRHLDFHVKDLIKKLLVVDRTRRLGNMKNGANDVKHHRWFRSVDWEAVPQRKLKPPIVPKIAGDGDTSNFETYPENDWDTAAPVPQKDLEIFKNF
# Chain of EphA8(h) (P29322 28-1005): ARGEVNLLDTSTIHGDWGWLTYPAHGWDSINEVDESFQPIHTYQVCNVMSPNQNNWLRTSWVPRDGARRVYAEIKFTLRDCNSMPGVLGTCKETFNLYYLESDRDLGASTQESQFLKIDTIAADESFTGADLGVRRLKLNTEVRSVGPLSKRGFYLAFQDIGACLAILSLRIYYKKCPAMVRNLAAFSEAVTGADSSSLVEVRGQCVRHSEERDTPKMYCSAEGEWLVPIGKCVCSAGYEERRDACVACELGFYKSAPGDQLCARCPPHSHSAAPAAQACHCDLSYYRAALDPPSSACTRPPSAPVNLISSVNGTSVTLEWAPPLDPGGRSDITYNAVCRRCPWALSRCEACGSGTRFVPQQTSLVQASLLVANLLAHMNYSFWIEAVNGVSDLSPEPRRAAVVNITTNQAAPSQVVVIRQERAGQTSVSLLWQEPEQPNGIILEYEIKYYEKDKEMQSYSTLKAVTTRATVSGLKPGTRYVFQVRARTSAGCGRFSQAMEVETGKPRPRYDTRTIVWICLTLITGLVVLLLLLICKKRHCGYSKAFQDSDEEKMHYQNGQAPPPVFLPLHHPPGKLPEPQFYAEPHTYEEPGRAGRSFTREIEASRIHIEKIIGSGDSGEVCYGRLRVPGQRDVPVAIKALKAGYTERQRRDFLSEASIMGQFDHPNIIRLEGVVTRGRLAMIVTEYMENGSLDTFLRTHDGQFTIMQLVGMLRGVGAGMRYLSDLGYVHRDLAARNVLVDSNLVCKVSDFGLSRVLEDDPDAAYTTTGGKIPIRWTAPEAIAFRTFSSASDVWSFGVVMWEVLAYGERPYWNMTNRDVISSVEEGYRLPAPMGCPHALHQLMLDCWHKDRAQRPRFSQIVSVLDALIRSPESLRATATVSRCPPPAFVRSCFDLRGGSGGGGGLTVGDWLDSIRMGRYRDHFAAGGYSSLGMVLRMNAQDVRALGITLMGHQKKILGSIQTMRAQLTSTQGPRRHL
# Chain of PAR-1Bα(h) (Q7KZI7 1-725 isoform Q7KZI7-4): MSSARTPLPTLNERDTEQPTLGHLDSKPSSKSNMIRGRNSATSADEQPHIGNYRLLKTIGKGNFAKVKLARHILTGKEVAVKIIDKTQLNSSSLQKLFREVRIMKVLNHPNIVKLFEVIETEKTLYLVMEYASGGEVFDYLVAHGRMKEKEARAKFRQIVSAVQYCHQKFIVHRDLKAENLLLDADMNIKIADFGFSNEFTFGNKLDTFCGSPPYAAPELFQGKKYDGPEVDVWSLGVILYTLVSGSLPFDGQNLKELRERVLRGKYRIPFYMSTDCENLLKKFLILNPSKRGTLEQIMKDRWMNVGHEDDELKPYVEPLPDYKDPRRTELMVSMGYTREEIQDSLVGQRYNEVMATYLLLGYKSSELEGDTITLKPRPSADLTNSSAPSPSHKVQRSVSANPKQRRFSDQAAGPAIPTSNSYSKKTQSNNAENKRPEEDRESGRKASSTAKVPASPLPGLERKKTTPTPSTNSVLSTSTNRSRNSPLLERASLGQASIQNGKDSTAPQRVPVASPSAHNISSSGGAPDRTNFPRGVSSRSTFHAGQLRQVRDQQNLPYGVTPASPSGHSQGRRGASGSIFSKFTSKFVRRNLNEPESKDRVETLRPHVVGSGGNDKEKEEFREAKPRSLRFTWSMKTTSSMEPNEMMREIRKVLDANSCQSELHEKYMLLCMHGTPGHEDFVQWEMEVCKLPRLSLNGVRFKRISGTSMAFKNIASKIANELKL
# Chain of PI3 Kinase (p110α(E542K)/p85α)(h) (P42336 whole entry E542K): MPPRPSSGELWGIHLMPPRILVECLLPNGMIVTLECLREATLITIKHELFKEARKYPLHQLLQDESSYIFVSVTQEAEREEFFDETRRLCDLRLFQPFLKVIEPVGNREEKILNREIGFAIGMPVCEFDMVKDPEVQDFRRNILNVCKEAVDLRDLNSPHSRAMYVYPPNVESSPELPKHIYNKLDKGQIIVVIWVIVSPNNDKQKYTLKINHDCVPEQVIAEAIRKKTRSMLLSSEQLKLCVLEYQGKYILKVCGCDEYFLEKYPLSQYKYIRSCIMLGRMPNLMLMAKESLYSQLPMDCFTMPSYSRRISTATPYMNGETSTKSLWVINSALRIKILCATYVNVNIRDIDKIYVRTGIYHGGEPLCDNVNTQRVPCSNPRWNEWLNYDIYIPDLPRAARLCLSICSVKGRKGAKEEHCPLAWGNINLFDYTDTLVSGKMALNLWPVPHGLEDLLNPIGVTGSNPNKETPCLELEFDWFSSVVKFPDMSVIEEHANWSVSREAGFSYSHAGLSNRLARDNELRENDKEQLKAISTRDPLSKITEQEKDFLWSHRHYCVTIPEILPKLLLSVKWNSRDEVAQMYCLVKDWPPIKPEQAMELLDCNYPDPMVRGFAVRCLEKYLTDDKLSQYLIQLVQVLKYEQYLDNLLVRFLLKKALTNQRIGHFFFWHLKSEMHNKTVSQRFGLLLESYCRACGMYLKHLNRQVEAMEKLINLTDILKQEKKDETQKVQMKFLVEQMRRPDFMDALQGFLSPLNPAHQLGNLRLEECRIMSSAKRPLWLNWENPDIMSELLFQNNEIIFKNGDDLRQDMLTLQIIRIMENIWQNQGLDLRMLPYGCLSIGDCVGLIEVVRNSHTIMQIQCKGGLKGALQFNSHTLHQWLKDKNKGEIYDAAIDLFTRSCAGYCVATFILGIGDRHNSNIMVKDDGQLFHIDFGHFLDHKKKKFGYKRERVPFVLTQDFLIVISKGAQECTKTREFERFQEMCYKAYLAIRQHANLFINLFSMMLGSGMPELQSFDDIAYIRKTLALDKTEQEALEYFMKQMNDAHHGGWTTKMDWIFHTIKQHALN
# Chain of PI3 Kinase (p110α(E542K)/p85α)(h) (P27986 whole entry partner): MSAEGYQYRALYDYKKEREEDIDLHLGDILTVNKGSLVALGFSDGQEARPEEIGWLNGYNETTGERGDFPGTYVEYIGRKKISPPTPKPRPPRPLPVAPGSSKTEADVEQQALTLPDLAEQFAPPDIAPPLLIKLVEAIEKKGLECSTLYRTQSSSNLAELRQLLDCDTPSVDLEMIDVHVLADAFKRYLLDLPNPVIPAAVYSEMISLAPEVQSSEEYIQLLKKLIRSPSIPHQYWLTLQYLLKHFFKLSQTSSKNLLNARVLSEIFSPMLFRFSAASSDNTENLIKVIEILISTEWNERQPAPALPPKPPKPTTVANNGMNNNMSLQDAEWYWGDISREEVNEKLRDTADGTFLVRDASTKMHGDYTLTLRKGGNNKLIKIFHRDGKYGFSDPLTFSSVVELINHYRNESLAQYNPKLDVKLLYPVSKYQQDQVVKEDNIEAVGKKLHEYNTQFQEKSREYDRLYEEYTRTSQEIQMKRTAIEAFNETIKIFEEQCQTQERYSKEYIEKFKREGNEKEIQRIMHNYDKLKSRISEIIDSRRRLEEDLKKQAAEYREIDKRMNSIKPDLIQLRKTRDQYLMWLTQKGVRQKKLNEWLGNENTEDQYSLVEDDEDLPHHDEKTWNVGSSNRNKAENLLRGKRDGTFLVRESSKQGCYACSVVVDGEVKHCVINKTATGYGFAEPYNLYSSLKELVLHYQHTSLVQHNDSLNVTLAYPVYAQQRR
# Chain of EphA5(h) (P54756 25-1037): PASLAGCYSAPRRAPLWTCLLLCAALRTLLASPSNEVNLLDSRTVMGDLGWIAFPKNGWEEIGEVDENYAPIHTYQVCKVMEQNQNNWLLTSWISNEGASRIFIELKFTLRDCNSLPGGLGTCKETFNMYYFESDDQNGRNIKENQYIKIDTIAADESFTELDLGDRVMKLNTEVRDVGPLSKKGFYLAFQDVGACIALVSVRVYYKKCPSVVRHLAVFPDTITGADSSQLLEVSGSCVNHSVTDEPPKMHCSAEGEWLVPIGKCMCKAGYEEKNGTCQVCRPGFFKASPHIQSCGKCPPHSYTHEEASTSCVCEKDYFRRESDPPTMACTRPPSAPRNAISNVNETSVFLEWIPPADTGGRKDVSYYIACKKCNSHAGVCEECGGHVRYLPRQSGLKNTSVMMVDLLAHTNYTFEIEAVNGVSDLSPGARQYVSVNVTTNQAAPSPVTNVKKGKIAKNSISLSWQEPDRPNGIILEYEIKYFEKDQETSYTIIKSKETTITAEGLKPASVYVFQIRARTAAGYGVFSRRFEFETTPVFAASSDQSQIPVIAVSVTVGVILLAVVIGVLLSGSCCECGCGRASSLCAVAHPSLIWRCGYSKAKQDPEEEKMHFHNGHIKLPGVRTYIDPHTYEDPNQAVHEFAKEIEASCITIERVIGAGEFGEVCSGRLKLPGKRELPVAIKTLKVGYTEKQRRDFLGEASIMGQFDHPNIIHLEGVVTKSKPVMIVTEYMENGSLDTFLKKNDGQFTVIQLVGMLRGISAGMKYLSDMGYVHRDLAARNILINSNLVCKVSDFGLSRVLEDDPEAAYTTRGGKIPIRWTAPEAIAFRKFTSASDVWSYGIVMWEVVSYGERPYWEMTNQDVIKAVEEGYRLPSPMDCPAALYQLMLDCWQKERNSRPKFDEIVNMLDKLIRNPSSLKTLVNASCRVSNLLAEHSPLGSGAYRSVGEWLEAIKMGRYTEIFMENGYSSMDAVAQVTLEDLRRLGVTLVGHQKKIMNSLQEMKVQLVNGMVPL
Structure (SMILES),inhibition at 0.1 µM [1],inhibition at 0.1 µM [2],inhibition at 0.1 µM [3],inhibition at 0.1 µM [4],inhibition at 0.1 µM [5],inhibition at 0.1 µM [6],inhibition at 0.1 µM [7],inhibition at 0.1 µM [8],inhibition at 0.1 µM [9],inhibition at 0.1 µM [10],inhibition at 0.1 µM [11],inhibition at 0.1 µM [12],inhibition at 0.1 µM [13],inhibition at 0.1 µM [14],inhibition at 0.1 µM [15],inhibition at 0.1 µM [16],inhibition at 0.1 µM [17],inhibition at 0.1 µM [18],inhibition at 0.1 µM [19],inhibition at 0.1 µM [20],further results
Cc1cc2c(F)c(Oc3nc(Nc4cc(C5CC5)[nH]n4)cc(N4CCN(C)CC4)n3)ccc2[nH]1 [Compound 10],33%,86%,13%,-2%,71%,0%,88%,8%,101%,0%,-16%,11%,99%,75%,0%,99%,8%,5%,-7%,1%,inhibition at 0.1 µM [21]: 103%; inhibition at 0.1 µM [22]: 3%; inhibition at 0.1 µM [23]: -35%; inhibition at 0.1 µM [24]: 78%; inhibition at 0.1 µM [25]: -1%; inhibition at 0.1 µM [26]: 47%; inhibition at 0.1 µM [27]: 76%; inhibition at 0.1 µM [28]: 78%; inhibition at 0.1 µM [29]: -21%; inhibition at 0.1 µM [30]: 29%; inhibition at 0.1 µM [31]: 24%
"Cc1cc2c(F)c(Oc3nc(Nc4cc(C5CC5)[nH]n4)cc(N4CCNCC4)n3)ccc2[nH]1 [Compound 11, N-(5-cyclopropyl-1H-pyrazol-3-yl)-2-((4-fluoro-2-methyl-1H-indol-5-yl)oxy)-6-(piperazin-1-yl)pyrimidin-4-amine]",39%,72%,35%,-6%,95%,-11%,93%,-4%,101%,35%,-7%,3%,101%,66%,0%,101%,-5%,2%,-10%,1%,inhibition at 0.1 µM [21]: 100%; inhibition at 0.1 µM [22]: 11%; inhibition at 0.1 µM [23]: -9%; inhibition at 0.1 µM [24]: 62%; inhibition at 0.1 µM [25]: 0%; inhibition at 0.1 µM [26]: 56%; inhibition at 0.1 µM [27]: 81%; inhibition at 0.1 µM [28]: 74%; inhibition at 0.1 µM [29]: -3%; inhibition at 0.1 µM [30]: 23%; inhibition at 0.1 µM [31]: 22%

# Source: patent publication US10245261B2, “Substituted indol-5-ol derivatives and their therapeutic applications” (NantBioScience, Inc., priority 2013, dated 2019)
